Where a SMILES comes first, the peptide text is derived from it. [ ]: non-standard residue; d: D form. pGlu = O=C1CC[C@@H](C(=O)O)N1; Thz = O=C(O)[C@@H]1CSCN1
What was measured:
[1] = system: prednisolone-immunodepressed murine peritoneal macrophages; test: Superoxide anion production by prednisolone-immunodepressed murine peritoneal macrophages (cytochrome C reduction, PMA stimulated); format: in vivo, mice; settings: for Reduced cytochrome C nmoles/1 × 10^6 macrophages (mean ± s.e.): 200 mg/kg/die i.p. + prednisolone 0.5 mg/kg/die s.c., 11 days, macrophages stimulated with phorbol myristate acetate; for Activity on superoxide anion production compared with PGT: same weight dosage as PGT
Experimental: Since the production of the superoxide anion (O2.) plays an important role in macrophage antimicrobial activity (N. P. Cumming, M. J. Pabst, J. Exp. Med., 152, 1659, 1980), the test for stimulation of the superoxide anion production in macrophages by medicaments is very important in the evaluation of the immuno-stimulating activity. Therefore, O2. production in isolated peritoneal macrophages from prednisolone-immunodepressed animals treated with the compounds of the invention was evaluated. Mice were treated subcutaneously for 11 days with 0.5 mg/kg/day with prednisolone and with the tested compounds at a dose of 100 mg/kg intraperitoneally twice a day, whereas the day of killing they received the only compounds of the invention. Then macrophages were isolated by means of peritoneal washing and cultured in RPMI-1640 added with 10% bovine foetal serum at a concentration of 1×10^6 cells/ml and at a temperature of +37° C. 1 ml aliquots of the cell suspension were incubated for 15 min. at 37° C. with cytochrome C from horse hearth and stimulated with phorbol myristate acetate (H. Nielsen, Eur. J. Clin. Pharmacol., 30, 99, 1986). After that, a spectrophotometric determination of reduced ferricytochrome C at λ=550 nm was carried out, using an extinction coefficient E (550)=29.5 mM.

[2] = Antitoxic activity: protection of rats against acetaldehyde toxicity; format: in vivo, COBS CD(SD) Rats; settings: 0.5 mM/kg oral (2 administrations); acetaldehyde 2150 mg/kg per os; mortality up to 72 hours
Experimental: (§1) The antitoxic activity was tested by determining the capability of the compounds of the invention to protect rats against formaldehyde and acetaldehyde toxicities (Sprince et al., Agents and Actions, 9, 407, 1979). COBS CD(SD) Rats (C. River) weighing 180-200 g fasted since the night before were orally administered with the test compounds half an hour before and 5 hours after the oral administration of the toxic agent. Formaldehyde was administered at the dose of 900 mg/kg per os and acetaldehyde at the dose of 2150 mg/kg per os; mortality was controlled up to 72 hours later. […] The activity of the compounds of the invention is similar to that of ascorbic acid and L-cysteine. Since acetaldehyde and formaldehyde are an important portion of the toxic agents contained in cigarette smoke, these novel compounds are very important in the treatment of all the lung pathologies connected to tobacco abuse or to atmosphere pollution. The antiradical activity was tested against doxorubicin mortality in the mouse (R. D. Olson et al., Life Sci., 29, 1393, 1981). Groups of 10 male CD-1 mice (C. River) weighing 18-20 g were treated orally with the tested compounds; one hour later doxorubicin was administered at the dose of 22 mg/kg i.p. (10 ml/kg). […]

[3] = Antiradical activity: protection against doxorubicin mortality in the mouse; format: in vivo, male CD-1 mice; settings: 0.5 mM/kg per os 4 times in two days; doxorubicin 22 mg/kg i.p.; mortality checked for 14 days
Experimental: as §1

[4] = Antitoxic activity: protection of rats against formaldehyde toxicity; format: in vivo, COBS CD(SD) Rats; settings: 0.5 mM/kg oral (2 administrations); formaldehyde 900 mg/kg per os; mortality up to 72 hours
Experimental: as §1

| SMILES | Reduced cytochrome C nmoles/1 × 10^6 macrophages (mean ± s.e.) [1] | Activity on superoxide anion production compared with PGT [1] | Protection against acetaldehyde mortality [2] | Protection against doxorubicin mortality [3] | Protection against formaldehyde mortality [4] |
| --- | --- | --- | --- | --- | --- |
| CCOC(=O)[C@@H]1CSCN1C(=O)[C@@H]1CCC(=S)N1 [Ia, Ethyl 3-L-(L-5-thioxoprolyl)thiazolidine-4-carboxylate] | 9.15 ± 0.68 nmoles/1 × 10^6 macrophages | higher activities than that of PGT | 70% | 40% | 60% |
| O=C(O)[C@@H]1CSCN1C(=O)[C@@H]1CCC(=S)N1 [Ib, 3-L-(5-thioxoprolyl)thiazolidine-4-carboxylic acid] | 9.17 ± 0.68 nmoles/1 × 10^6 macrophages | higher activities than that of PGT | 60% | 50% | 70% |
| O=C1CC[C@@H](C(=O)N2CSC[C@H]2C(=O)O)N1 [PGT, 3-L-pyroglutamyl-L-thiazolidine-4-carboxylic acid, reference compound] ([pGlu]-[Thz]-OH) | 8.33 ± 0.77 nmoles/1 × 10^6 macrophages |  |  |  |  |

From patent US5212160A, “3-L-(5-thioxo-L-prolyl)thiazolidine-4-carboxylic acid and derivatives therefrom, processes for the preparation thereof and pharmaceutical compositions containing them” (Poli Industria Chimica S.p.A., priority 1990, dated 1993)
